Assay: xn = mol fraction of the nth substance listed
Conditions: Liquid, Vibrating tube method

CCC[N+]1(C)CCCCC1.O=S(=O)([N-]S(=O)(=O)C(F)(F)F)C(F)(F)F + CC(=O)c1ccccc1
mass density [kg/m3]
Conditions	100 kPa	10000 kPa	15000 kPa	20000 kPa	25000 kPa	30000 kPa	35000 kPa	40000 kPa	45000 kPa	50000 kPa
298.15 K, x2 = 0.1024	1393.3	1399.9	1402.9	1406	1408.8	1411.6	1414.3	1417.1	1419.8	1422.4
298.15 K, x2 = 0.2007	1376	1382.5	1385.4	1388.5	1391.3	1394.1	1396.8	1399.5	1402.2	1404.8
298.15 K, x2 = 0.3001	1355.5	1361.8	1364.8	1367.9	1370.7	1373.5	1376.2	1379	1381.7	1384.3
298.15 K, x2 = 0.4001	1331.8	1338	1341	1344.1	1346.9	1349.7	1352.4	1355.1	1357.8	1360.4
298.15 K, x2 = 0.5008	1303.8	1309.9	1312.8	1315.8	1318.5	1321.3	1324	1326.6	1329.3	1331.8
298.15 K, x2 = 0.6001	1270.5	1276.6	1279.5	1282.5	1285.2	1287.9	1290.5	1293.2	1295.7	1298.2
298.15 K, x2 = 0.7003	1229.4	1235.5	1238.3	1241.2	1243.9	1246.5	1249.1	1251.7	1254.2	1256.7
298.15 K, x2 = 0.7999	1178	1184	1186.8	1189.7	1192.3	1194.9	1197.5	1200.1	1202.6	1205
298.15 K, x2 = 0.8998	1111.5	1117.3	1120	1122.7	1125.2	1127.8	1130.4	1133	1135.4	1137.8
318.15 K, x2 = 0.1024	1376.7	1383.4	1386.8	1389.8	1392.8	1395.8	1398.8	1401.6	1404.5	1407.1
318.15 K, x2 = 0.2007	1359	1365.7	1369.1	1372.1	1375.1	1378.1	1381.1	1383.9	1386.7	1389.3
318.15 K, x2 = 0.3001	1338.4	1345.1	1348.5	1351.5	1354.5	1357.5	1360.5	1363.3	1366.1	1368.7
318.15 K, x2 = 0.4001	1314.6	1321.3	1324.7	1327.7	1330.7	1333.7	1336.5	1339.3	1342.1	1344.8
318.15 K, x2 = 0.5008	1286.6	1293.1	1296.5	1299.5	1302.4	1305.4	1308.2	1310.9	1313.7	1316.3
318.15 K, x2 = 0.6001	1253.2	1259.8	1263.1	1266.1	1269	1271.9	1274.8	1277.4	1280.2	1282.8
318.15 K, x2 = 0.7003	1212	1218.5	1221.8	1224.7	1227.7	1230.6	1233.4	1236	1238.7	1241.3
318.15 K, x2 = 0.7999	1160.6	1167.1	1170.2	1173.1	1176	1178.8	1181.7	1184.2	1186.9	1189.5
318.15 K, x2 = 0.8998	1093.9	1100.3	1103.4	1106.3	1109.2	1112	1114.9	1117.4	1120.1	1122.6
348.15 K, x2 = 0.1024	1350.8	1357.9	1361.5	1365.1	1368.5	1371.7	1374.9	1377.9	1381	1383.8
348.15 K, x2 = 0.2007	1333	1340.3	1344	1347.5	1350.9	1354.1	1357.4	1360.4	1363.4	1366.2
348.15 K, x2 = 0.3001	1312.4	1319.7	1323.4	1327	1330.4	1333.7	1336.8	1339.9	1342.8	1345.6
348.15 K, x2 = 0.4001	1288.5	1295.8	1299.5	1303	1306.4	1309.6	1312.8	1315.8	1318.8	1321.6
348.15 K, x2 = 0.5008	1260.2	1267.6	1271.2	1274.6	1277.9	1281.2	1284.3	1287.3	1290.3	1293.1
348.15 K, x2 = 0.6001	1226.6	1234.1	1237.7	1241.1	1244.4	1247.7	1250.8	1253.8	1256.8	1259.6
348.15 K, x2 = 0.7003	1185.5	1193	1196.6	1199.9	1203.2	1206.5	1209.6	1212.6	1215.6	1218.4
348.15 K, x2 = 0.7999	1134.2	1141.7	1145.2	1148.6	1151.8	1155.1	1158.2	1161.2	1164.2	1167
348.15 K, x2 = 0.8998	1067.9	1075.4	1078.9	1082.1	1085.4	1088.6	1091.7	1094.7	1097.7	1100.4
